Assay results reported in patent publication US10154958B1 (King Abdulaziz University, priority 2017, dated 2018).
Marks after values point to notes of the source that are not given here.

Key:
Trichomonas vaginalis = assay: In vitro susceptibility of Trichomonas vaginalis isolates (flagellar motility); format: cell-based; details: 37° C.; for Mean % cells with motility after 48 hrs of aerobic contact: 500 cells/100 μL + 100 μL composition or metranidazole 25 μg/ml
Description: Fresh isolates of Trichomonas vaginalis were collected from 30-38 years old women. The procedure of vaginal smearing and reconstituting medium of the collected specimens were performed according to the procedure in Meingassner and Thumer, Antimicrobial agents and Chemotherapy, Vol 15, pp 254-257,1979, incorporated herein by reference in its entirety. Each isolate was adjusted to a viable count of 5,000 cells/ml, using a hemocytometer. A reconstituting diluent, Diamond's TYM supplemented with 10% horse serum, was used. The isolates were tested with the composition and a commonly used drug, metranidazole.
The number of cells in each well was 500 cells/100 μL of medium. […] Metranidazole was included as a reference at a concentration of 25 μg/ml. Metranidazole (100 μL) was also kept in contact with 500 cells/100 μL of the 20 isolates of Trichomonas vaginalis in the presence of oxygen for 48 hours at 37° C. Control triplicate wells were included in which the Trichomonas vaginalis cells of each of the 20 isolates were put in contact with equal volume of Diamond's TYM supplemented with 10% horse serum. The motility of flagella of the cells was observed after 48 hrs under an inverted-phase contrast microscope. The percentage of cells losing flagellar motility was determined.

Gardnerella vaginalis = assay: Disc diffusion susceptibility of Gardnerella vaginalis isolates; format: cell-based; details: of the 20 isolates of Gardnerella vaginalis; reference disc 5 mcg/disc
Description: Twenty isolates of each of Gardnerella vaginalis and Candida albicans were collected from human vaginosis cases. […] The disc diffusion method was used. For Gardnerella vaginalis, the Mueller-Hinton agar supplemented with 5% human serum medium was used.
The discs were incubated aerobically for 48 hrs at 35° C., the diameter of the discs inhibition zones were measured in millimeter, and interpreted by using the chart provided by Hudzicki, American Society for Microbiology, www.asm.org.2013, incorporated herein by reference in its entirety.

SMILES: Cc1ncc([N+](=O)[O-])n1CCO [Metranidazole, metranidazole]
- Mean % cells with motility after 48 hrs of aerobic contact (Trichomonas vaginalis; isolate 1): 4.0%
- Mean % cells with motility after 48 hrs of aerobic contact (Trichomonas vaginalis; isolate 2): 0.0%
- Mean % cells with motility after 48 hrs of aerobic contact (Trichomonas vaginalis; isolate 3): 1.5%
- Mean % cells with motility after 48 hrs of aerobic contact (Trichomonas vaginalis; isolate 4): 5.4%
- Mean % cells with motility after 48 hrs of aerobic contact (Trichomonas vaginalis; isolate 5): 7.4%
- Mean % cells with motility after 48 hrs of aerobic contact (Trichomonas vaginalis; isolate 6): 0.0%
- Mean % cells with motility after 48 hrs of aerobic contact (Trichomonas vaginalis; isolate 7): 9.3%
- Mean % cells with motility after 48 hrs of aerobic contact (Trichomonas vaginalis; isolate 8): 5.6%
- Mean % cells with motility after 48 hrs of aerobic contact (Trichomonas vaginalis; isolate 9): 8.4%
- Mean % cells with motility after 48 hrs of aerobic contact (Trichomonas vaginalis; isolate 10): 10.4%
- Mean % cells with motility after 48 hrs of aerobic contact (Trichomonas vaginalis; isolate 11): 0.0%
- Mean % cells with motility after 48 hrs of aerobic contact (Trichomonas vaginalis; isolate 12): 4.2%
- Mean % cells with motility after 48 hrs of aerobic contact (Trichomonas vaginalis; isolate 13): 0.0%
- Mean % cells with motility after 48 hrs of aerobic contact (Trichomonas vaginalis; isolate 14): 6.7%
- Mean % cells with motility after 48 hrs of aerobic contact (Trichomonas vaginalis; isolate 15): 8.5%
- Mean % cells with motility after 48 hrs of aerobic contact (Trichomonas vaginalis; isolate 16): 11.4%
- Mean % cells with motility after 48 hrs of aerobic contact (Trichomonas vaginalis; isolate 17): 7.4%
- Mean % cells with motility after 48 hrs of aerobic contact (Trichomonas vaginalis; isolate 18): 8.2%
- Mean % cells with motility after 48 hrs of aerobic contact (Trichomonas vaginalis; isolate 19): 9.7%
- Mean % cells with motility after 48 hrs of aerobic contact (Trichomonas vaginalis; isolate 20): 1.2%
- Mean % cells with motility after 48 hrs of aerobic contact, Mean of Means (Trichomonas vaginalis; mean of means of the 20 isolates, composition or metranidazole 25 μg/ml): 5.5^a %
- number of isolates resistant to the reference disc (Gardnerella vaginalis): one
